The source of these data is US20100317578A1, “METHOD OF PROTECTING AGAINST STROKE THROUGH THE USE OF A DELTA OPIOID PEPTIDE” (priority 2009, published 2010).

Common to all, as to assay type: in vivo, Sprague-Dawley rats
The test system of experiment [1] is ischemia-induced postural bias (MCAor). In words: Postural bias (tail-hang) test. The conditions noted are these: scale 0-3; pooled mean of ischemic animals pretreated with saline, naltrexone alone or naloxone methiodide alone. The procedure:
(§1) The spontaneous rotational test was performed immediately after the animal's recovery from anesthesia following insertion of the embolus. The animal was placed in a chamber made of transparent Plexiglas (40×40×35.5 cm) and the direction of the animal's rotation was noted over two 5-minute sessions. Two full turns (tight ipsiversive rotations) per minute was considered indicative of a brain insult. For the postural bias test and forelimb akinesia test, a semiquantitative scale was used as described in Bederson et al., Stroke 1986, 17:472-476 [33].
The postural tail-hang test involved holding the animal by the tail (similar to the EBST) and noting the positions of the forelimbs. A scale is used for grading the ischemic injury-induced dysfunctions as follows: 0, rats extend straight both forelimbs, no observable deficit; 1, rats keep the left forelimb to the breast and extend straight the right forelimb; 2, rats show decreased resistance to lateral push in addition to behavior in score 1 without circling; 3, rats twist the upper half of their body in addition to behavior in score 2.
Finally, the forelimb akinesia test involved pulling each forelimb at 90 degrees away from the body median axis. The return of the forelimb towards the midline was scored as 0 for slow movement with rigidity, 1 for slow movement, and 2 for smooth rapid movement. […]

In experiment [2] the test system is ischemia-induced asymmetrical motor deficits (MCAor). Kind of experiment: Battery of behavioral tests after MCAor surgery.
Experiment [3] relates to ischemia-induced biased swing activity (MCAor). In words: Elevated body swing test (EBST). The conditions noted are these: pooled mean of ischemic animals pretreated with saline, naltrexone alone or naloxone methiodide alone. The protocol:
(§2) After recovery from anesthesia, animals were evaluated on a battery of tests including spontaneous rotational test, elevated body swing test (EBST), postural bias test and forelimb akinesia test.
The EBST is described in detail in Borlongan et al., Exp Neurol 1998, 149:310-321[17], and has been utilized to characterize the biased swing activity of ischemic animals starting at one month post-ischemia and extending up to three months post-surgery. The animal was lifted 20 times by its tail and the direction of the swing was recorded.

Experiment [4] relates to ischemia-induced spontaneous rotational behavior (MCAor). In words: Spontaneous rotational test. To be noted: pooled mean of ischemic animals pretreated with saline, naltrexone alone or naloxone methiodide alone. The procedure: as §2, §1
The next experiment concerns caspase-3. Kind of experiment: Immunohistochemistry of apoptosis markers, caspase-3. To be noted: ischemic striatum, 72 hours after MCAor. The procedure: (§3) In order to further characterize the effects of DADLE on apoptotic cell death, 20 animals were subjected to the same procedures as above, and the treatment effects of DADLE (n=10) against saline vehicle alone (n=10) were compared. Rats were euthanized at 72 hours after MCAor surgery. The rats were perfused transcardially with 200 ml of cold phosphate-buffered saline (PBS) and 200 ml of 4% paraformaldehyde in PBS. Brains were removed and post-fixed in the same fixative overnight at 4° C. with the subsequent replacement with 30% sucrose in PBS for 72 hours. The brains were coronally sectioned at the thickness of 8 μm. Sections were washed 3 times for 5 minutes in PBS. Sections were then incubated overnight at 4° C. with caspase-3 (Abeam, 1:500) or Fas (Santa Cruz Biotechnology, 1:100) primary antibody and washed 3 times in PBS. […]
(§4) For morphological analyses, immunoreactive cells in the striatum within the ipsilateral to the stroke hemisphere were examined using a Zeiss LSM510 confocal microscope (Oberkochen, Germany). Specifically, 6 coronal sections at every 300 μm that approximately captured the ischemic striatum (AP −2.0 to +2.0 mm from the bregma) were examined from each rat and the number of positive cells was counted in each 6 high power fields and the averages were used for the statistical analyses. […]

Another experiment relates to Fas. Kind of experiment: Immunohistochemistry of apoptosis markers, Fas. To be noted: ischemic striatum, 72 hours after MCAor. The procedure: as §3, §4
The test system of experiment [5] is glial cell line-derived neurotrophic factor (GDNF). Kind of experiment: ELISA assay of GDNF in brain tissues. The conditions noted are these: striatal and cortical tissues, p<0.05. The procedure: (§5) To examine possible non-opioid effects of DADLE, assays of expression of neurotrophic factors (glial cell line-derived neurotrophic factor (GDNF) and nerve growth factor (NGF)) that have been previously shown to be protective against ischemia were performed. Enzyme-linked immunosorbent assay (ELISA) was conducted on ischemic animals injected either with DADLE or saline (n=6 per group). Following the same drug dosing regimen mentioned above, animals were rapidly decapitated, their brains removed and striatal and frontal cortical tissues quickly dissected. Brain homogenization and supernatant acidification were performed using methods as described in Okragly et al., Exp Neurol 1997, 145:592-596 [37] with minor modifications. Protein concentrations were measured by using the BCA Kit (Pierse, Rockford, Ill. USA). For the measurement of GDNF, mouse monoclonal anti-GDNF antibody (R & D Systems, Inc., Minnesota, USA) was used as a capture antibody and biotinylated goat anti-GDNF antibody (R & D Systems, Inc., Minnesota, USA) was used as a detection antibody. For the measurement of NGF, the NGF Emax TM ImmunoAssay system (Promega Cooperation, Madison, Wis., USA) was used. The THERMOmax 96-well microplate reader (Molecular Devices Corp., Sunnyvale, Calif. USA) was used to measure the optical densities.

Experiment [6] concerns cerebral infarction in the striatum after MCAor. In words: Cerebral infarction assay (TTC staining).
For experiment [7], the system named is nerve growth factor (NGF). In words: ELISA assay of NGF in brain tissues. The conditions noted are these: striatal and cortical tissues, p>0.05. The protocol:
as §5
(In general: An ELISA detects its analyte on a solid surface through an enzyme-linked reagent.)

A further experiment relates to p53 mRNA. Kind of experiment: Determination of p53 mRNA expression (northern blot). The conditions noted are these: 24 hr post-MCAor. The procedure: To examine whether DADLE altered programmed cell death or apoptosis, which has been postulated to mediate ischemia-induced cell injury, the mRNA expression of the apoptotic marker p53 were assayed. At 24 hr and 72 hr after MCAor surgery, randomly selected animals that received either DADLE alone or saline alone were euthanized by rapid decapitation. The striatum was dissected and quickly frozen using dry ice then stored in −80° C. freezer until tissue processing was conducted. Total RNA extraction, northern blot analysis and hybridization were conducted using standard methods as described in Chomczynski et al., Anal Biochem 1987, 162:156-159 and Mattson, Brain Res 2000, 886:47-53 [34,35]. Analyses of resulting bands were quantified using a Macintosh computer-based image analysis system (Image, NIH). Densitometrically determined intensities of p-53 mRNA was normalized to 18S rRNA.

Experiment [8] concerns ischemia-induced forelimb akinesia (MCAor). In words: Forelimb akinesia test. The conditions noted are these: scale 0-2; pooled mean of ischemic animals pretreated with saline, naltrexone alone or naloxone methiodide alone.
Protocol: The spontaneous rotational test [32] was performed immediately after the animal's recovery from anesthesia following insertion of the embolus. The animal was placed in a chamber made of transparent Plexiglas (40×40×35.5 cm) and the direction of the animal's rotation was noted over two 5-minute sessions. Two full turns (tight ipsiversive rotations) per minute was considered indicative of a brain insult [17,32].
Finally, the forelimb akinesia test involved pulling each forelimb at 90 degrees away from the body median axis. The return of the forelimb towards the midline was scored as 0 for slow movement with rigidity, 1 for slow movement, and 2 for smooth rapid movement. A score of 1 in the scale for postural bias test or forelimb akinesia test was considered as indicative of CNS dysfunction [17].

As for `O=C1CC[C@@]2(O)[C@H]3Cc4ccc(O)c5c4[C@@]2(CCN3CC2CC2)[C@H]1O5` [naltrexone], the “mean postural bias score” value in experiment [1] is listed as 2.25±0.31. Further, the “behavior in EBST, spontaneous rotational test, postural bias test and forelimb akinesia test” value (“behavior in EBST” for short) in [2] (ischemic rats, pretreatment i.p. before MCAor, throughout the post-MCAor test period (day 0 to 3)) was “significant abnormalities”. Besides, the “mean percentage biased swing response” value in [3] is recorded as 82.8%±12.3. Also, the “mean ipsiversive rotations per minute” value in [4] stood at 2.52±0.56 rotations per minute.
As to `CC(C)C[C@@H](NC(=O)[C@H](Cc1ccccc1)NC(=O)CNC(=O)[C@@H](C)NC(=O)[C@@H](N)Cc1ccc(O)cc1)C(=O)O` [DADLE, [D-Ala^2,D-Leu^5]enkephalin], the “caspase-3-positive cells compared to vehicle-treated ischemic animals” value in the experiment with caspase-3 is “significant reductions”. For the same compound, the “Fas-positive cells compared to vehicle-treated ischemic animals” value in the experiment on Fas is “significant reductions”. For the same compound, the “behavior in EBST” value in experiment [2] (rat, in vivo) is given as “near-normal behaviors”. The “levels of GDNF compared to saline-treated ischemic animals” value in experiment [5] was “significantly higher”. The “mean volume of infarcted striatal tissue” value in [6] (rat, in vivo) was “no detectable infarction”. In addition, the “levels of NGF compared to saline-treated ischemic animals” value in [7] is on record as “did not differ”. In addition, the “increment in p-53 mRNA expression in ischemic striatum compared to intact striatum of control, normal animals” value in the experiment on p53 mRNA (normalized to 18S rRNA, vehicle 65% increment, not significant vs control (p>0.05)) came out at 28%. Besides, the “p-53 mRNA expression in ischemic striatum compared to vehicle-treated ischemic animals” value with p53 mRNA (only a trend, p=0.07) is reported as “marked reduction”.
As for `C=CC[N+]1(C)CC[C@]23c4c5ccc(O)c4O[C@H]2C(=O)CC[C@@]3(O)[C@H]1C5` (stereo partly drawn) [naloxone methiodide], in experiment [8], the mean akinesia score is 1.17±0.15. For the same compound, the “mean postural bias score” value in experiment [1] is recorded as 2.25±0.31. Besides, the “behavior in EBST” value in experiment [2] (rat, in vivo) is listed as “significant abnormalities”. In addition, the “mean volume of infarcted striatal tissue” value in [6] (TTC staining at 24 or 72 hr after reperfusion, saline 81.2±5.3 mm^3) is 78.7±7.4 mm^3. Also, the “mean percentage biased swing response” value in [3] is 82.8%±12.3. Also, the “mean ipsiversive rotations per minute” value in [4] worked out at 2.52±0.56 rotations per minute.
